The values below come from patent US11185593B2, “Alkylating agent for alkylating target with driver oncogene mutation” (Chiba Prefecture, priority 2013, dated 2021).

In one experiment the test system is KRAS gene. Description: Semi-quantitative analysis of gene expression by RT-PCR. The experiment is classed as cell-based, human. The note with it: LS180 (KRAS gene codon 12 mutation), 50 nM, 48 hours, FIG. 11B. On the procedure: HT29 and LS180 were each cultured in a 12-well plate. On the following day, the cells were treated with 50 nM KR12 or KR13, and were then cultured for 48 hours. Thereafter, the cultured cells were harvested, and RNA was then extracted. For the extraction, RT-PCR was carried out using RNeasy mini kit (Qiagen, CA). Subsequently, using the extracted RNA as a template, cDNA for reverse transcription was prepared by employing Super Script VILO cDNA Synthesis Kit (Invitrogen, CA). Using the prepared cDNA as a template, PCR was carried out. After a reaction had been carried out at 94° C. for 5 minutes, a reaction cycle of 94° C.-30 seconds, 55° C.-30 seconds, and 72° C.-30 seconds was repeated 20 times. Finally, an elongation reaction was carried out at 72° C. for 7 minutes. The PCR product was subjected to electrophoresis on 2% agarose gel. The amount of the PCR product was calculated using a photograph of a band stained with ethidium bromide.
The below-mentioned primer set was used in PCR.
A forward primer (sense) and a reverse primer (antisense), which amplify both mutant and wild-type KRAS genes, and a forward primer (sense) and a reverse primer (antisense) for an RPS18 (ribosomal protein S18) gene used as an internal standard are shown below.

The next experiment deals with LS180. Description: Cell growth of KR12-treated LS180 cells (FIG. 12B). The experiment is classed as cell-based, human. The note with it: LS180, FIG. 12B.
Experiment [1] has as its system colon cancer and pancreatic cancer cell lines. Description: Cytotoxicity test on various cancer cells, summary by KRAS codon 12 status. The experiment is classed as cell-based. To be noted: Homo sapiens. The protocol:
Using colon cancer and pancreatic cancer cell lines, the cells were seeded in each well of a 96-well microplate, resulting in a cell density of 3000 to 5000 cells/well, and they were then cultured overnight. On the following day, the cells of each type were treated with KR12 recognizing a codon 12 mutation in concentrations of 1 nM, 10 nM, 30 nM, 100 nM, 300 nM, and 1 μM for 48 hours. Thereafter, a WST-8 reagent was added to each well, using cell counting kit-8, and the obtained mixture was then reacted for 2 hours. After that, the number of cells was counted at a wavelength of 450 nm according to a colorimetric analysis method using a microplate reader. The method of counting the number of cells comprises: 1) obtaining the mean value of the medium alone, 2) subtracting the mean value of the medium from each well, 3) obtaining the mean value of DMSO, 4) dividing the medium-subtracted value by the mean value of DMSO and then multiplying by 100, 5) obtaining the mean value of each treatment group and a standard deviation, and then preparing a graph. The calculation formula of IC50 is the following: IC50=10 (LOG (A/B)×(50−C)/(D−C)+LOG (B)), wherein A: a higher concentration of two concentrations sandwiching 50%, B: a lower concentration of two concentrations sandwiching 50%, C: inhibitory percentage at B, and D: inhibitory percentage at A. […]

Another experiment deals with LS180 (KRAS-MUThetero). Description: Suppression of tumor growth in nude mice, LS180 transplanted. The experiment is classed as in vivo. The note with it: nude mice with LS180 cells; 3.4 mmol KR12 via the caudal vein; FIG. 14B. On the procedure:
The below-mentioned 3 types of PBS solutions containing each type of cells were subcutaneously transplanted into the femurs of nude mice (i.e., HT29 into 7 mice, LS180 into 7 mice, and SW480 into 6 mice), and thereafter, at a time point in which a tumor adhered to the living body of each mouse and the tumor volume became approximately 100 mm^3, a drug was prepared with a composition of 3.4 mmol KR12 (1.36 mM KR12 dissolved in 2.5 μL of DMSO and 197.5 μL of PBS), or of a DMSO/PBS control (2.5 μL of DMSO and 197.5 μL of PBS). The prepared drug was subjected to sonication for 10 minutes, and 200 μL of the drug was administered to each mouse via the caudal vein thereof. The body weight and the tumor size were measured once three days, and the size of the tumor was measured by the method of 0.52×L×W×D(1/6×π×L×W×D).
LS180 (KRAS-MUThetero): (transplanted in an amount of 3×10^6 cells/100 μl PBS into the subcutis of each mouse; a cell line having a heterozygous KRAS gene codon 12 mutation G12D)

The next experiment has as its system PANC-1. Briefly: Cytotoxicity test, WST-8 (cell counting kit-8), 48 hours. The experiment is classed as cell-based. The note with it: Homo sapiens, PANC-1, KRAS G12D Hetero, read-out: KR12 IC50. The protocol:
(§1) Using colon cancer and pancreatic cancer cell lines, the cells were seeded in each well of a 96-well microplate, resulting in a cell density of 3000 to 5000 cells/well, and they were then cultured overnight. On the following day, the cells of each type were treated with KR12 recognizing a codon 12 mutation in concentrations of 1 nM, 10 nM, 30 nM, 100 nM, 300 nM, and 1 μM for 48 hours. Thereafter, a WST-8 reagent was added to each well, using cell counting kit-8, and the obtained mixture was then reacted for 2 hours. After that, the number of cells was counted at a wavelength of 450 nm according to a colorimetric analysis method using a microplate reader. The method of counting the number of cells comprises: 1) obtaining the mean value of the medium alone, 2) subtracting the mean value of the medium from each well, 3) obtaining the mean value of DMSO, 4) dividing the medium-subtracted value by the mean value of DMSO and then multiplying by 100, 5) obtaining the mean value of each treatment group and a standard deviation, and then preparing a graph. The calculation formula of IC50 is the following: IC50=10 (LOG (A/B)×(50−C)/(D−C)+LOG (B)), wherein A: a higher concentration of two concentrations sandwiching 50%, B: a lower concentration of two concentrations sandwiching 50%, C: inhibitory percentage at B, and D: inhibitory percentage at A.

The subject of the next experiment is K375. Described as above. The experiment is classed as cell-based. To be noted: K375, KRAS G12D Hetero, read-out: KR12 IC50. The protocol:
as §1

Another experiment has as its system SW1463. The experiment is described as above. The experiment is classed as cell-based. To be noted: SW1463, KRAS G12C Homo, read-out: KR12 IC50. On the procedure:
as §1
(§2) The cells used in the aforementioned experiment are human cancer cell lines SW480, SW620, SNU-C2B, LS180, SW1463, DLD-1, HT29, and Caco-2 (purchased from European Collection of Cell Cultures (ECACC)).

A further experiment relates to SW620. The experiment is described as above. The note with it: SW-620, SW620, KRAS G12V Homo, read-out: KR12 IC50. The experiment is classed as cell-based. On the procedure:
as §1, §2

A further experiment concerns SW480. Described as above. To be noted: SW480, KRAS G12V Homo, read-out: KR12 IC50. The experiment is classed as cell-based. The protocol:
as §1, §2

For a further experiment, the system named is SNU-C2B. Described as above. The experiment is classed as cell-based. To be noted: Homo sapiens, KRAS G12D Hetero, read-out: KR12 IC50. The protocol:
as §1, §2

A further experiment deals with DLD-1. The description is as above. The experiment is classed as cell-based. To be noted: Homo sapiens, DLD-1, KRAS G13D Hetero, read-out: KR12 IC50. On the procedure: as §1, §2
The test system of another experiment is Caco-2. The description is as above. The experiment is classed as cell-based. The note with it: Homo sapiens, Caco-2, KRAS wild type, read-out: KR12 IC50. On the procedure: as §1, §2
The next experiment deals with HT-29. Described as above. The experiment is classed as cell-based. The note with it: Homo sapiens, HT-29, KRAS wild type, read-out: KR12 IC50. The protocol: as §1, §2

Usually IC50 stands for the point on the concentration scale where inhibition reaches its midpoint.

Some results are limits rather than exact numbers.

For the compound `CC(=O)Nc1cn(C)c(C(=O)Nc2cc(C(=O)NCCC(=O)Nc3cn(C)c(C(=O)Nc4cn(C)c(C(=O)Nc5cc(C(=O)Nc6cn(C)c(C(=O)NCCCC(=O)Nc7cc(C(=O)Nc8cn(C)c(C(=O)NCCC(=O)Nc9cc(C(=O)Nc%10cc(C(=O)Nc%11ccc%12[nH]c(C(=O)N%13CC(CCl)c%14c%13cc(O)c%13ccccc%14%13)cc%12c%11)n(C)c%10)n(C)c9)n8)n(C)c7)n6)n(C)c5)n4)n3)n(C)c2)n1` (centres unmarked) [KR12], in the experiment with KRAS gene, the “expression of the KRAS gene” value is listed as “significantly suppressed”. For the same compound, the cell growth result in the experiment on LS180 was “suppressed”. The IC50 in experiment [1] (SW1463, DLD-1, HT-29 and Caco-2, cell lines which do not have a codon 12 mutation recognized by KR12) was at least 100 nM; in [1] (cell lines having a codon 12 mutation, which is recognized by KR12) it was at most 100 nM; in the experiment on PANC-1 it was 81 nM; in the experiment on K375, 78 nM; with SW1463, 178 nM; in the experiment on SW620, 17 nM. Besides, the IC50 with SW480 is 31 nM; in the experiment on SNU-C2B it was 57 nM; in the experiment on DLD-1, 153 nM; in the experiment on Caco-2, 105 nM; in the experiment with HT-29 it was 102 nM. Moreover, the tumor growth entry in the experiment with LS180 (KRAS-MUThetero) is recorded as “significantly suppressed”.
